Measurements from ChEMBL document CHEMBL6178019, “Discovery of CYP1A1 Inhibitors for Host-Directed Therapy against Sepsis” (J Med Chem, 2025).
Activity calls are given as the source filed them. The calls are words filed in the database; no cut-off is given here.

Columns and labels:
CYP1A1 = biological target: T1, CYP1A1 (Mus musculus, UniProt P00184); experiment: Inhibition of CYP1A1 in mouse RAW264.7 cells assessed as relative activity by measuring fold change at 500 nM incubated for 12 hrs by EROD assay relative to control; assay type: cell-based; details: read-out: FC
T1 sequence (P00184 whole entry): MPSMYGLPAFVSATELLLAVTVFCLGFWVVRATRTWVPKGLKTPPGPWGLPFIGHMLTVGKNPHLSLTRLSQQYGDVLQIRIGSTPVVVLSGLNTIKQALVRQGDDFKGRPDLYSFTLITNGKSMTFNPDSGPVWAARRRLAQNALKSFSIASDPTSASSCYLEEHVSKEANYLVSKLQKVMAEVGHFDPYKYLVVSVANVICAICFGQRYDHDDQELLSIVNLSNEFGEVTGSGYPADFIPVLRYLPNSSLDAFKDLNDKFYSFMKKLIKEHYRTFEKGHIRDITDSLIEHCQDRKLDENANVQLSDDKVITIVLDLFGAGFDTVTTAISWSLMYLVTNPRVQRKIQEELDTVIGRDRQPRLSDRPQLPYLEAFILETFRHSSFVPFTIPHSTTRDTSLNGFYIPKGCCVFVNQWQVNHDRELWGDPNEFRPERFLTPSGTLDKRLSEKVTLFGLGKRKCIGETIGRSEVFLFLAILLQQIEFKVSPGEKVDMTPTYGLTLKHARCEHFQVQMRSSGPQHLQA

[1] = Toxicity in male C57BL/6 mouse assessed as effect on alanine transaminase (ALT) level in serum up to 100 mg/kg, ip measured after 12 hrs; assay type: organism-based; details: in vivo
[2] = Toxicity in male C57BL/6 mouse assessed as effect on aspartate aminotransferase (AST) level in serum up to 100 mg/kg, ip measured after 12 hrs; assay type: organism-based; details: in vivo
[3] = Toxicity in male C57BL/6 mouse assessed as effect on creatinine level in serum up to 100 mg/kg, ip measured after 12 hrs; assay type: organism-based; details: in vivo
[4] = Toxicity in male C57BL/6 mouse assessed as change in body weight at 1 to 100 mg/kg, ip measured after 7 days; assay type: organism-based; details: in vivo, 168 h, dose 1-100 mg/kg, time 7 day
[5] = Toxicity in male C57BL/6 mouse assessed as change in fur condition at 1 to 100 mg/kg, ip measured after 7 days; assay type: organism-based; details: in vivo, 168 h, dose 1-100 mg/kg, time 7 day
Staphylococcus aureus [6] = experiment: Antibacterial activity methicillin-resistant Staphylococcus aureus infected in C57BL/6 mouse model assessed as increase in survival at 25 mg/kg, ip preadministered for 12 hrs followed by bacterial infection and measured after 60 hrs by Kaplan Meier survival analysis; assay type: functional, organism-based; details: time 72.0 hrs
Acinetobacter baumannii = experiment: Antibacterial activity against Acinetobacter baumannii infected in C57BL/6 mouse assessed as increase in survival at 25 mg/kg, ip preadministered for 12 hrs followed by bacterial infection and measured after 60 hrs by Kaplan Meier survival analysis; assay type: functional, organism-based; details: time 72.0 hrs
Staphylococcus aureus [7] = experiment: Antibacterial activity against methicillin-resistant Staphylococcus aureus infected in C57BL/6 mouse model assessed as reduction in liver damage at 25 mg/kg, ip administered for 12 hrs by H and E staining based analysis; assay type: functional, organism-based
Staphylococcus aureus [8] = experiment: Antibacterial activity against methicillin-resistant Staphylococcus aureus infected in C57BL/6 mouse assessed as reduction in kidney damage at 25 mg/kg, ip administered for 12 hrs by H and E staining based analysis; assay type: functional, organism-based
Staphylococcus aureus [9] = experiment: Antibacterial activity against methicillin-resistant Staphylococcus aureus infected in C57BL/6 mouse model assessed as reversal of alanine transaminase level in serum at 25 mg/kg, ip administered for 12 hrs by absorbance based microplate reader; assay type: functional, organism-based
Staphylococcus aureus [10] = experiment: Antibacterial activity against methicillin-resistant Staphylococcus aureus infected in C57BL/6 mouse model assessed as reversal of aspartate aminotransferase level in serum at 25 mg/kg, ip administered for 12 hrs by absorbance based microplate reader; assay type: functional, organism-based
Staphylococcus aureus [11] = experiment: Antibacterial activity against methicillin-resistant Staphylococcus aureus infected in C57BL/6 mouse model assessed as reversal of creatinine level in serum at 25 mg/kg, ip administered for 12 hrs by absorbance based microplate reader; assay type: functional, organism-based
Mus musculus = experiment: Effect on CYP1A1 protein expression in C57BL/6 mouse kidney infected with methicillin-resistant Staphylococcus aureus at 25 mg/kg, ip administered for 12 hrs by Western blot analysis; assay type: functional, organism-based
Staphylococcus aureus [12] = experiment: Antibacterial activity against methicillin-resistant Staphylococcus aureus assessed as inhibition of bacterial growth at 0.02 to 2.5 mg/ml; assay type: functional, organism-based; details: dose 0.02-2.5 mg/ml
Staphylococcus aureus [13] = experiment: Antibacterial activity against methicillin-resistant Staphylococcus aureus infected in C57BL/6 mouse model assessed as reduction in bacterial load in peritoneal lavage fluid at 25 mg/kg, ip pretreated for 12 hrs followed by bacterial infection and measured after 24 hrs relative to control; assay type: functional; parameters: scale not given: the % may be the effect or the level left; details: time 36 hrs
RAW264.7 [14] = experiment: Induction of phagocytosis in mouse RAW264.7 cells assessed as upregulation of CD68 protein level by flow cytometric analysis; assay type: functional, cell-based
RAW264.7 [15] = experiment: Induction of phagocytosis in mouse RAW264.7 cells assessed as upregulation of CD204 protein level by flow cytometric analysis; assay type: functional, cell-based
RAW264.7 [16] = experiment: Induction of phagocytosis in mouse RAW264.7 cells assessed as upregulation of SR-A1 mRNA expression by qRT-PCR analysis; assay type: functional, cell-based
RAW264.7 [17] = experiment: Induction of phagocytosis in mouse RAW264.7 cells assessed as upregulation of CD32 mRNA expression by qRT-PCR analysis; assay type: functional, cell-based
Staphylococcus aureus [18] = experiment: Antibacterial activity against methicillin-resistant Staphylococcus aureus infected in C57BL/6 mouse model assessed as reduction in bacterial dissemination from PLF to blood at 25 mg/kg, ip preadministered for 12 hrs followed by bacterial infection and measured after 24 hrs; assay type: functional, organism-based; details: time 36.0 hrs
Staphylococcus aureus [19] = experiment: Antibacterial activity against methicillin-resistant Staphylococcus aureus infected in C57BL/6 mouse model assessed as reduction in bacterial dissemination from PLF to liver at 25 mg/kg, ip preadministered for 12 hrs followed by bacterial infection and measured after 24 hrs; assay type: functional, organism-based; details: time 36.0 hrs
Staphylococcus aureus [20] = experiment: Antibacterial activity against methicillin-resistant Staphylococcus aureus infected in C57BL/6 mouse model assessed as reduction in bacterial dissemination from PLF to kidney at 25 mg/kg, ip preadministered for 12 hrs followed by bacterial infection and measured after 24 hrs; assay type: functional, organism-based; details: time 36.0 hrs
RAW264.7 [21] = experiment: Induction of phagocytosis in zymosan A stimulated mouse RAW264.7 cells assessed as upregulation of CD68 protein level at 5.0 uM incubated for 12 hrs by flow cytometric analysis; assay type: functional, cell-based
RAW264.7 [22] = experiment: Induction of phagocytosis in zymosan A stimulated mouse RAW264.7 cells assessed as upregulation of CD204 protein level at 5.0 uM incubated for 12 hrs by flow cytometric analysis; assay type: functional, cell-based
RAW264.7 [23] = experiment: Induction of phagocytosis in zymosan A stimulated mouse RAW264.7 cells assessed as upregulation of SR-A1 mRNA expression at 5.0 uM incubated for 12 hrs by qRT-PCR analysis; assay type: functional, cell-based
Staphylococcus aureus [24] = experiment: Antibacterial activity against methicillin-resistant Staphylococcus aureus infected in CYP1A1 deficient mouse assessed as bacterial clearance in PLF at 25 mg/kg, ip pretreated for 12 hrs followed by bacterial infection for 24 hrs; assay type: functional, organism-based; details: time 36.0 hrs
Staphylococcus aureus [25] = experiment: Antibacterial activity against methicillin-resistant Staphylococcus aureus infected in macrophage-depleted mouse assessed as bacterial clearance in PLF at 25 mg/kg, ip pretreated with clodronate liposomes for 48 hrs followed by compound administration for 12 hrs and measured after 24 hrs of bacterial infection; assay type: functional, organism-based; details: time 36.0 hrs

| Structure (SMILES) | fold induction at 12 h, 0.5 µM (CYP1A1) | Activity [1] | Activity [2] | Activity [3] | Activity [4] | Activity [5] | Activity (Staphylococcus aureus [6]) | Activity (Acinetobacter baumannii) | Activity (Staphylococcus aureus [7]) | Activity (Staphylococcus aureus [8]) | Activity (Staphylococcus aureus [9]) | Activity (Staphylococcus aureus [10]) | Activity (Staphylococcus aureus [11]) | Activity (Mus musculus) | Activity (Staphylococcus aureus [12]) | Activity (Staphylococcus aureus [13]) [%] | Activity (RAW264.7 [14]) | Activity (RAW264.7 [15]) | Activity (RAW264.7 [16]) | Activity (RAW264.7 [17]) | further results |
| --- | --- | --- | --- | --- | --- | --- | --- | --- | --- | --- | --- | --- | --- | --- | --- | --- | --- | --- | --- | --- | --- |
| C#Cc1ccccc1/C=C/C(=O)c1ccc2c(c1)n(C)c(=O)n2C | 0.07 | Non-toxic | Non-toxic | Non-toxic | Non-toxic | Non-toxic | Active | Active | Active | Active | Active | Active | Active | inactive | Active | >70 | Active | Active | Active | Active | Activity (Staphylococcus aureus [18]): Active; Activity (Staphylococcus aureus [19]): Active; Activity (Staphylococcus aureus [20]): Active; Activity (RAW264.7 [21]): Active; Activity (RAW264.7 [22]): Active; Activity (RAW264.7 [23]): Active; Activity (Staphylococcus aureus [24]): inactive; Activity (Staphylococcus aureus [25]): inactive |
| Cn1cc(/C=C/C(=O)c2ccc3c(c2)n(C)c(=O)n3C)c2ccccc21 | 0.72 | Non-toxic | Non-toxic | Non-toxic | Non-toxic | Non-toxic | Active | Active | Active | Active | Active | Active | Active | inactive | Active | >70 | Active | Active | Active | Active | Activity (Staphylococcus aureus [18]): Active; Activity (Staphylococcus aureus [19]): Active; Activity (Staphylococcus aureus [20]): Active; Activity (RAW264.7 [21]): Active; Activity (RAW264.7 [22]): Active; Activity (RAW264.7 [23]): Active; Activity (Staphylococcus aureus [24]): inactive; Activity (Staphylococcus aureus [25]): inactive |
